What was measured:
[1] = tested on: Jurkat cells; test: Extracellular release of cytochrome c into cell culture medium (immunoprecipitation and immunoblot); assay type: cell-based, human; settings: for cytochrome c in the cell culture medium: 16 h, anti-CD95 mAb 1 μg/ml, etoposide 25 μg/ml, doxorubicin 2 μg/ml
Protocol: 5×10^6 Jurkat cells were cultured in growth medium and either left untreated (control) or stimulated for 16 h with staurosporine (stauro, 2.5 μM), anti-CD95 mAb (α-CD95, 1 μg/ml), etoposide (etopo, 25 μg/ml) or doxorubicin (doxo, 2 μg/ml). Cytochrome c was precipitated from the cell culture medium (m) and the cellular extracts (c) with antibodies against the native molecule. The immunoprecipitated material was separated by SDS-PAGE and analysed by immunoblotting.
5×10^6 Jurkat cells were cultured in growth medium and stimulated for 15 h with the indicated concentrations of anti-CD95 mAb and staurosporine or for 24 h with the indicated concentrations of etoposide or doxorubicin. Cytochrome c was precipitated from the culture medium (m) and the cellular extracts (c) with antibodies against the native molecule. The immunoprecipitated material was separated by SDS-PAGE and analysed by immunoblotting. The quantity of cytochrome c was determined by densitometric analysis. The graphs display the amount of cytochrome c in the culture medium relative to the total amount of cytochrome c present in medium and cells.
1×10^6 Jurkat cells were incubated with medium or staurosporine (stauro, 2.5 μM) and harvested after is the indicated time points (+). A cell culture sample prior to applying staurosporine and a cell culture sample after 15 h without the addition of staurosporine are shown for intercomparison (−). Release of cytochrome c was determined by immunoprecipitation of the medium fractions and subsequent immunoblotting. […] The amounts of cytochrome c in the supernatants indicate the absolute densitometric values.
The human Jurkat T-cell line and mouse L929 fibroblasts were grown at 37° C., 5% CO2, in RPMI-1640 medium supplemented with 10% heat-inactivated fetal calf serum, penicillin and streptomycin (all from GIBCO BRL). Etoposide, actinomycin D and doxorubicin were purchased from Sigma and staurosporine from Roche Diagnostics. All stimuli were dissolved in ethanol and kept at −70° C.

[2] = tested on: Jurkat cells; test: Measurement of cell death by flow cytometry (hypodiploid nuclei, PI uptake); assay type: cell-based, human
Protocol: The percentage of apoptotic hypodiploid cells is shown on the right of the histograms. […] 1×10^6 Jurkat cells were incubated with medium or staurosporine (stauro, 2.5 μM) and harvested after the indicated time points.
Also shown is the detection of cell death by PI (propidium iodide) uptake and of apoptosis by detecting hypodiploid nuclei, both by flow cytometry. The percentage of dead cells or apoptotic hypodiploid cells is shown on the right of the histograms. 1×10^6 cells were cultured in normal growth medium (control), or in the presence of staurbsporine (stauro, 2.5 μM) or the indicated concentrations of H2O2 for 18 h. […] As also shown, cell death was detected by PI (propidium iodide) uptake and apoptosis by detecting hypodiploid nuclei, both by flow cytometry.

[3] = tested on: Jurkat cells; test: LDH activity in the supernatant; assay type: cell-based, human; settings: staurosporine 2.5 μM, 15 hours
Protocol: 1×10^6 Jurkat cells were incubated with medium or staurosporine (stauro, 2.5 μM) and harvested after is the indicated time points (+). A cell culture sample prior to applying staurosporine and a cell culture sample after 15 h without the addition of staurosporine are shown for intercomparison (−). Release of cytochrome c was determined by immunoprecipitation of the medium fractions and subsequent immunoblotting. Heavy; and light chain of anti-cytochrome c antibody and cytochrome c are indicated by open and closed arrowheads, respectively. The LDH activity in the supernatant of apoptotic cells represents the percentage of total LDH activity in the sample. The amounts of cytochrome c in the supernatants indicate the absolute densitometric values. The release of cytochrome c from the cell is a rapid process. Already one hour after apoptosis induction with staurosporine cytochrome c could be detected in the extracellular medium. […] Only about 20% of the total LDH were detected in the supernatants of apoptotic cells after 15 hours of staurosporine treatment.
Cell viability was also determined by monitoring the release of the cytoplasmic enzyme lactate dehydrogenase (LDH), an indicator for cell death. In order to obtain total LDH activity, cells were lysed with 1% Triton X-100. […]

[4] = tested on: L929 cells; test: Extracellular release of cytochrome c into cell culture medium (immunoprecipitation and immunoblot); assay type: cell-based, mouse; settings: TNF-α 10 ng/ml plus actinomycin D 1 μg/ml in presence of zVAD-fmk 100 μM, 8 h
Protocol: 3×10^6 L929 cells were incubated with medium or with TNF-α (10 ng/ml) plus actinomycin D (Act. D, 1 μg/ml) in the absence or presence of the caspase inhibitor zVAD-fmk (benzyloxycarbonyl-Val-Ala-Asp-fluoromethylketone, zVAD, 100 μM) for 8 h. The release of cytochrome c was determined by immunoprecipitation of culture medium (m) and for intercomparison of corresponding cellular extracts (c) and subsequent immunoblotting. Heavy and light chain of the anti-cytochrome c antibody and cytochrome c are indicated by open and closed arrowheads, respectively.
The human Jurkat T-cell line and mouse L929 fibroblasts were grown at 37° C., 5% CO2, in RPMI-1640 medium supplemented with 10% heat-inactivated fetal calf serum, penicillin and streptomycin (all from GIBCO BRL). […] The broad-range caspase inhibitor benzyloxycarbonyl-Val-Ala-Asp-fluoromethylketone (zVAD-fmk) was purchased from Enzyme Systems (Dublin, Calif.); all other chemicals were from Merck KG or Roth GmbH.
To determine the cellular cytochrome c content, cells were collected by centrifugation, washed in cold PBS and extracted in cold lysis buffer (50 mM Tris, pH 7.4, 150 mM NaCl, 1% Triton-X100 containing 3 μg/ml aprotinin, 3 μg/ml leupeptin, 3 μg/ml pepstatin and 2 mM PMSF). […] The amount of immunoprecipitated cytochrome c was determined by densitometric analysis using the NIH image software (National Institutes of Health).

[5] = tested on: L929 cells; test: Measurement of cell death by flow cytometry (hypodiploid nuclei, PI uptake); assay type: cell-based, mouse; settings: TNF-α 10 ng/ml plus actinomycin D 1 μg/ml in presence of zVAD-fmk 100 μM, 8 h
Protocol: Also shown is the detection of cell death by PI (propidium iodide) uptake and of apoptosis by detecting hypodiploid nuclei, both by flow cytometry. The percentage of dead cells or apoptotic hypodiploid cells is shown on the right of the histograms. 3×10^6 L929 cells were incubated with medium or with TNF-α (10 ng/ml) plus actinomycin D (Act. D, 1 μg/ml) in the absence or presence of the caspase inhibitor zVAD-fmk (benzyloxycarbonyl-Val-Ala-Asp-fluoromethylketone, zVAD, 100 μM) for 8 h. The release of cytochrome c was determined by immunoprecipitation of culture medium (m) and for intercomparison of corresponding cellular extracts (c) and subsequent immunoblotting. […] As also shown, cell death was detected by PI (propidium iodide) uptake and apoptosis by detecting hypodiploid nuclei, both by flow cytometry. […]
For determination of apoptosis, Jurkat and L929 cells were seeded in microtiter plates and treated with the cytotoxic agents for the indicated time periods. […] Briefly, apoptotic nuclei were prepared by lysing cells in a hypotonic lysis buffer (1% sodium citrate, 0.1% Triton X-100, 50 μg/ml propidium iodide) and subsequently analysed by flow cytometry. In parallel, cell death as assessed by membrane damage was determined by the uptake of propidium iodide (PI, 2 μg/ml in PBS; Sigma) into non-fixed cells. […]

[6] = Jurkat cells, staurosporine 2.5 μM
[7] = Jurkat T-cells, 100 μM and 250 μM, 18 h

`COc1cccc2c1C(=O)c1c(O)c3c(c(O)c1C2=O)C[C@@](O)(C(=O)CO)C[C@@H]3O[C@H]1C[C@H](N)[C@H](O)[C@H](C)O1` [doxorubicin] was tested, and the “cytochrome c in the cell culture medium” value [1, 6] was “large amounts of cytochrome c”.
For `COc1cc([C@@H]2c3cc4c(cc3[C@@H](O[C@@H]3O[C@@H]5CO[C@@H](C)O[C@H]5[C@H](O)[C@H]3O)[C@H]3COC(=O)[C@H]23)OCO4)cc(OC)c1O` [etoposide], the “cytochrome c in the cell culture medium” value [1, 6] was “large amounts of cytochrome c”.
For `OO` [hydrogen peroxide], the “mode of cell death (PI uptake, hypodiploid nuclei)” value [2, 7] was “induced necrotic death” and the “cytochrome c release into the extracellular cell culture medium” value [1, 7] was “no cytochrome c release”.
`CN[C@@H]1C[C@H]2O[C@@](C)([C@@H]1OC)n1c3ccccc3c3c4c(c5c6ccccc6n2c5c31)C(=O)NC4` [staurosporine] was tested, and the “time until formation of hypodiploid nuclei after triggering apoptosis” value [2, 6] was ≥ 5 h, the “LDH detected in the supernatants, percentage of total LDH” value [3] was “about 20%” and the “cytochrome c in the cell culture medium” value [1, 6] was “large amounts of cytochrome c”. For the same compound, the “time at which cytochrome c could be detected in the extracellular medium” value [1, 6] was “one hour”.
In the case of “benzyloxycarbonyl-Val-Ala-Asp-fluoromethylketone [zVAD-fmk]”, the “extracellular cytochrome c release” value [4] is reported as “not during necrotic cell death” and the “mode of cell death (hypodiploid nuclei, PI uptake)” value [5] is reported as “resulted in necrosis”.

Reference: patent US20070243577A1, “Method for the detection of apoptosis by determining apoptosis-specific markers released into an extracellular medium through cellular release mechanisms” (Evotec OAI AG, priority 2000, published 2007)
